Data taken from publication PMC8375242 (International Journal of Nanomedicine, 2021).
Like-named read-outs stand apart in the source and are kept apart here.

What was measured:
[1] = test system: human ovarian cancer (SKOV-3); assay: MTT cytotoxicity assay, SKOV-3; type: cell-based
[2] = test system: murine colon cancer (CT-26); assay: MTT cytotoxicity assay, CT-26; type: cell-based; details: read-out: IC50 CT-26 (48 h)
[3] = test system: MMP-9; assay: Immunohistochemical detection of MMP-9 in tumor tissues; type: in vivo, BALB/c mice; details: 4 mg Pt/kg (1-NPs, oxaliplatin i.v.; 1 i.p.), immunohistochemistry; saline 16.3±1.9
[4] = test system: CT-26 homograft tumors; assay: In vivo antitumor assay, CT-26 homograft; design: species or system BALB/c mice; details: days 6, 9, 12, 14, day 15, saline 1586
[5] = test system: human lung cancer (A549); assay: MTT cytotoxicity assay, A549; type: cell-based; details: read-out: IC50 A549 (48 h)
[6] = test system: human normal liver cell line LO-2; assay: MTT cytotoxicity assay, normal cell LO-2; type: cell-based; details: for IC50: read-out: IC50 LO-2 (48 h)
[7] = Toxicity in vivo; design: species or system BALB/c mice; details: 4 mg Pt/kg (1-NPs, oxaliplatin i.v.; 1 i.p.)
[8] = test system: cisplatin-resistant cell line A549R; assay: MTT cytotoxicity assay, A549R; type: cell-based, human; details: for RF (resistant factor): RF=IC50(A549R)/IC50(A549); for IC50: read-out: IC50 A549R (48 h)
[9] = test system: iNOS; assay: Immunohistochemical detection of iNOS in tumor tissues; type: in vivo, BALB/c mice; details: 4 mg Pt/kg (1-NPs, oxaliplatin i.v.), immunohistochemistry
[10] = Serum AST, ALT, BUN and CRE detection; type: in vivo, BALB/c mice; details: 4 mg Pt/kg (1-NPs, oxaliplatin i.v.; 1 i.p.), vs saline
[11] = target: T1, rhCOX-2 (Homo sapiens, UniProt P35354); assay: biochemical; details: read-out: COX-2 inhibition
T1 sequence (P35354 18-604): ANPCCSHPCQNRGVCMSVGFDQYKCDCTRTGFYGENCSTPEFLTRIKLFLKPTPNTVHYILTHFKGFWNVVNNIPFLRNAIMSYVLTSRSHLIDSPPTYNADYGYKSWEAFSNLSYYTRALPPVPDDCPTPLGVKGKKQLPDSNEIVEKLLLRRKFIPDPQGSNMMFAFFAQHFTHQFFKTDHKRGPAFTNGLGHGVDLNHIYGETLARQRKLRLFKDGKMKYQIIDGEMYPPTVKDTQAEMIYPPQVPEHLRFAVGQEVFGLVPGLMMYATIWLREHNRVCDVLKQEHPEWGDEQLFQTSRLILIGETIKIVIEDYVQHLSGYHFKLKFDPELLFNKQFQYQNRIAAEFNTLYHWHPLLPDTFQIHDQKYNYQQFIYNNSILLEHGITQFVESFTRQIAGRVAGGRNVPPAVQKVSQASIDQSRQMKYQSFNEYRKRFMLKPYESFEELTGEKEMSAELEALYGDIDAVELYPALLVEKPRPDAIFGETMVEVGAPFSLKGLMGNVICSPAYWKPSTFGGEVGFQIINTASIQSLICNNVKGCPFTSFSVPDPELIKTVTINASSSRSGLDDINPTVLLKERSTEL

[12] = read-out: IC50 SKOV-3 (48 h), 48 h incubation
[13] = read-out: IC50 SKOV-3 (72 h), 72 h incubation
[14] = MTT, 48 h incubation, normal liver cell

Q: Which IC50 [1, 12] does the source give for O=C1[O][Pt]2([NH][C@@H]3CCCC[C@H]3[NH]2)[O]C1=O [oxaliplatin] here?
A: Its IC50 is 5.9 ± 1.3 µM.

Q: What about the IC50 [1, 13] of the same compound?
A: Its IC50 is 7.5 ± 1.8 µM.

Q: What about the IC50 ([2]; MTT, 48 h incubation) of the same compound?
A: The IC50 was 4.1 ± 0.7 µM.

Q: And the “expression of MMP-9, mean optical density” value [3]?
A: Its value is 6.5±0.5%.

Q: And the tumor volume ([4]; 4 mg Pt/kg (1-NPs, oxaliplatin i.v.; 1 i.p.))?
A: The tumor volume was 477 mm^3.

Q: And the IC50 ([5]; MTT, 48 h incubation)?
A: Its IC50 is 6.7 ± 1.8 µM.

Q: What about the “SI (selectivity index)” value ([6]; SI = IC50(LO-2)/Average IC50) of the same compound?
A: The value was 1.0.

Q: And the IC50 [6, 14]?
A: Its IC50 is 4.8 ± 0.7 µM.

Q: What about the “signs of toxicity during treatment” value [7] of the same compound?
A: Its value is “anorexia and dyskinesia”.

Q: And the “H&E histology of heart, liver, spleen, lung and kidney” value ([7]; vs saline)?
A: The value was “no appreciable histological differences”.

Q: And the spleen weight index ([7]; vs saline)?
A: The spleen weight index was “remarkable suppressions of spleen”.

Q: What about the “RF (resistant factor)” value [8] of the same compound?
A: The value was 0.4.

Q: What about the IC50 ([8]; MTT, 48 h incubation) of the same compound?
A: The IC50 was 2.4 ± 0.6 µM.

Q: What about the “expression of iNOS in tumor tissues” value [9] of the same compound?
A: The value was “significantly upregulates iNOS”.

Q: What about the “ALT and AST levels in serum” value [10] of the same compound?
A: The value was “significant enhanced ALT and AST levels”.

Q: What does the source list for N.N.[Cl][Pt][Cl] [cisplatin]?
A: IC50 [1, 12]: 1.9 ± 0.4 µM; IC50 [1, 13]: 1.2 ± 0.3 µM; IC50 ([2]; MTT, 48 h incubation): 1.2 ± 0.3 µM; tumor volume ([4]; 2 mg Pt/kg (2-NPs, cisplatin i.v.; 2 i.p.)): 399 mm^3; IC50 ([5]; MTT, 48 h incubation): 2.8 ± 0.6 µM; IC50 [6, 14]: 3.4 ± 1.2 µM; RF (resistant factor) [8]: 2.57; RF (resistant factor) ([8]; listed as CDDP): 2.6; IC50 ([8]; MTT, 48 h incubation): 7.1 ± 1.3 µM

Q: Which IC50 ([2]; Mus musculus, CT26, 48 h) does the source give for COc1ccc2cc([C@H](C)C(=O)O)ccc2c1 [naproxen] here?
A: Its IC50 is greater than 100 µM.

Q: And the IC50 ([5]; Homo sapiens, A549, 48 h)?
A: The IC50 was greater than 100 µM.

Q: What about the IC50 ([6]; Homo sapiens, 48 h) of the same compound?
A: Its IC50 is greater than 100 µM.

Q: What about the inhibition at 40 µM [11] of the same compound?
A: The inhibition at 40 µM was 74%.

Q: What about the IC50 ([8]; Homo sapiens, 48 h) of the same compound?
A: Its IC50 is greater than 100 µM.
